Measured values published in ChEMBL document CHEMBL4152300, “Discovery of the selective and efficacious inhibitors of FLT3 mutations” (Eur J Med Chem, 2018).

Key:
[1] = target: T1, Cyclin-dependent kinase 6 (Homo sapiens, UniProt Q00534); assay: Inhibition of CDK6 (unknown origin) assessed as residual activity at 0.123 uM by Hotspot assay relative to control
Homo sapiens [2] = species on record: Homo sapiens; assay: Selectivity ratio of IC50 for CDK6 (unknown origin) to IC50 for human FLT3
MV4-11 = assay: Growth inhibition of human MV4-11 cells harboring FLT3-ITD after 72 hrs by Cell-Titer Glo assay; format: functional, cell-based; settings: MV4-11, 72 h
[3] = target: T2, Receptor-type tyrosine-protein kinase FLT3 (Homo sapiens, UniProt P36888)
T2 sequence (P36888 whole entry): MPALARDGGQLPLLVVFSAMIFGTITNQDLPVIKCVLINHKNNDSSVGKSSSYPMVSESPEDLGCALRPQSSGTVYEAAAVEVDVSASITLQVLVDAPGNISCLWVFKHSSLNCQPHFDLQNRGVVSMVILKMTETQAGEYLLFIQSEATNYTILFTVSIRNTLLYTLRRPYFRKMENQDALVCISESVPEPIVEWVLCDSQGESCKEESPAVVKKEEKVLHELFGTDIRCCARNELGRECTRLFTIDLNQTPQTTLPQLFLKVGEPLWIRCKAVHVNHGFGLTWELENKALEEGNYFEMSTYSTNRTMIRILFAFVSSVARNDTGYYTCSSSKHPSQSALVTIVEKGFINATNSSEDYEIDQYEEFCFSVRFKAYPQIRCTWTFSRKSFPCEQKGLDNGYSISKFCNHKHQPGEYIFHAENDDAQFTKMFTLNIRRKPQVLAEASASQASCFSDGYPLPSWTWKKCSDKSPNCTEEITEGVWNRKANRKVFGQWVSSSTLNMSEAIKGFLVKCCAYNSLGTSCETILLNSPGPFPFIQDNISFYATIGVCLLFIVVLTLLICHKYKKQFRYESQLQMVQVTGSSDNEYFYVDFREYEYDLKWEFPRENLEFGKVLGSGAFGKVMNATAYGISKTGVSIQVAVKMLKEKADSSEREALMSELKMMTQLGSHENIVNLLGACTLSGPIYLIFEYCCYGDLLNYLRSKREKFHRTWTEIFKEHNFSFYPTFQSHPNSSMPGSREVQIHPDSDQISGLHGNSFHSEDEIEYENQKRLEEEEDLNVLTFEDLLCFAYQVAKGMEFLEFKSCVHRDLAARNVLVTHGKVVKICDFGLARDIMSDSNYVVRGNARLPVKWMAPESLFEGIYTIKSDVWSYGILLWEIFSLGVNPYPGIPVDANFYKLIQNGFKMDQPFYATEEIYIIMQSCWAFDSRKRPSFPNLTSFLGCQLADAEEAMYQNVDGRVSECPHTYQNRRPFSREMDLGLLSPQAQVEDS
Description: Inhibition of human FLT3 by Hotspot assay

[4] = target: T3, CDK2 (cyclin-dependent kinase 2) (Homo sapiens, UniProt P24941); assay: Inhibition of CDK2 (unknown origin) assessed as residual activity at 0.123 uM by Hotspot assay relative to control; settings: CDK2 enzyme (unknown origin), read-out: Activity
Homo sapiens [5] = species on record: Homo sapiens; assay: Selectivity ratio of IC50 for CDK2 (unknown origin) to IC50 for human FLT3
[6] = target: T1, Cyclin-dependent kinase 6; assay: Inhibition of CDK6 (unknown origin) by Hotspot assay
[7] = target: T4, Receptor-type tyrosine-protein kinase FLT3 (Homo sapiens, UniProt P36888); assay: Inhibition of human FLT3 F594_R595insREY mutant by Hotspot assay
[8] = target: T4, Receptor-type tyrosine-protein kinase FLT3; assay: Inhibition of human FLT3 R595_E596 mutant by Hotspot assay
[9] = target: T5, Receptor-type tyrosine-protein kinase FLT3 (Homo sapiens, UniProt P36888, ITD); assay: Inhibition of human FLT3 ITD-W51 mutant by Hotspot assay
[10] = target: Mitogen-activated protein kinase 15 (Homo sapiens, UniProt Q8TD08); assay: Inhibition of human ERK7 at 0.123 uM by Hotspot assay
Mitogen-activated protein kinase 15, sequence (Q8TD08 whole entry): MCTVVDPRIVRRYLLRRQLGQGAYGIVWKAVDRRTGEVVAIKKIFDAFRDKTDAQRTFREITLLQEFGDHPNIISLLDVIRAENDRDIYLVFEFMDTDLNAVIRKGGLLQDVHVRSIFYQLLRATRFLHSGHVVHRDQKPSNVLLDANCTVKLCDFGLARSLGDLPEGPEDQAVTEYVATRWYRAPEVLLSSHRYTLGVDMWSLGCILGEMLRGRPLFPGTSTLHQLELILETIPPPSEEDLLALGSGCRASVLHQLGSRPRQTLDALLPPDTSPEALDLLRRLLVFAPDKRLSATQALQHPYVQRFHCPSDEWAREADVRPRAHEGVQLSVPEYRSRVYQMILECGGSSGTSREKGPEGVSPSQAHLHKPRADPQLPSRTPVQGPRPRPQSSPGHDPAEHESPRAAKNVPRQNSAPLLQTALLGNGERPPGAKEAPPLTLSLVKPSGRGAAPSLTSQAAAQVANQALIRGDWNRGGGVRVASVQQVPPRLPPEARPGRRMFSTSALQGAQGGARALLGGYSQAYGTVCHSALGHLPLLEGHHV

[11] = target: T4, Receptor-type tyrosine-protein kinase FLT3; assay: Inhibition of human FLT3 F594_R595insR mutant by Hotspot assay
[12] = Half life in human liver microsomes preincubated for 5 mins followed by NADPH addition by LC-MS/MS analysis; format: ADME, microsome
[13] = target: T5, Receptor-type tyrosine-protein kinase FLT3; assay: Inhibition of human FLT3 ITD-NPOS mutant by Hotspot assay
CDK6/cyclin D1 = CDK6/cyclin D1 (Homo sapiens, UniProt Q00534); assay: Inhibition of human CDK6/Cyclin-D1 at 0.123 uM by Hotspot assay; format: protein-complex assay
CDK6/cyclin D1, sequence (P24385 whole entry): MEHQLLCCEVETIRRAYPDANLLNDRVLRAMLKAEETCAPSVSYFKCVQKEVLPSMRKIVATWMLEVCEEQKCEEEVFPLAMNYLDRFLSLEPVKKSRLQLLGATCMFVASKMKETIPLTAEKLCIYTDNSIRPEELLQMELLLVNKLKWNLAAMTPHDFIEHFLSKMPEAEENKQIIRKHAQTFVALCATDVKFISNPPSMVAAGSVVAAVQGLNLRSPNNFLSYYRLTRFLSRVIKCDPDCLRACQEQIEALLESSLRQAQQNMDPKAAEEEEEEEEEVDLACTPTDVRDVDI
CDK6/cyclin D1, sequence (Q00534 whole entry): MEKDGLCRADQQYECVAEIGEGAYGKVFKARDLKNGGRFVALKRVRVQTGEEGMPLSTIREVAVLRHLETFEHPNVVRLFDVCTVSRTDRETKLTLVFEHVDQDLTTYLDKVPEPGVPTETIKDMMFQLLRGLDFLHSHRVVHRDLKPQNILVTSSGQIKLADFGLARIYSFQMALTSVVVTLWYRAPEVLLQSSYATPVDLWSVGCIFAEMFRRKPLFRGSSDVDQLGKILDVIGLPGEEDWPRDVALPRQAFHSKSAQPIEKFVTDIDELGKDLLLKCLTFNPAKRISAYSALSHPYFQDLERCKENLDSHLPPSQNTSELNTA

[14] = target: T6, Receptor-type tyrosine-protein kinase FLT3 (Homo sapiens, UniProt P36888, D835Y); assay: Inhibition of human FLT3 D835Y mutant by Hotspot assay
[15] = Drug uptake in human liver microsomes up to 60 mins by LC-MS/MS analysis; format: ADME, microsome; settings: 1 h
[16] = target: T1, Cyclin-dependent kinase 6; assay: Inhibition of CDK6 (unknown origin) at 0.123 uM by Hotspot assay relative to control
CDK2/Cyclin A2 = CDK2/Cyclin A2 (Homo sapiens, UniProt P24941); assay: Inhibition of human CDK2/Cyclin-A at 0.123 uM by Hotspot assay; format: protein-complex assay
[17] = target: Cyclin-dependent kinase 4/cyclin D1 (Homo sapiens, UniProt P11802); assay: Inhibition of human CDK4/Cyclin-D1 at 0.123 uM by Hotspot assay; format: protein-complex assay
Cyclin-dependent kinase 4/cyclin D1, sequence (P11802 whole entry, the tested form may be a part): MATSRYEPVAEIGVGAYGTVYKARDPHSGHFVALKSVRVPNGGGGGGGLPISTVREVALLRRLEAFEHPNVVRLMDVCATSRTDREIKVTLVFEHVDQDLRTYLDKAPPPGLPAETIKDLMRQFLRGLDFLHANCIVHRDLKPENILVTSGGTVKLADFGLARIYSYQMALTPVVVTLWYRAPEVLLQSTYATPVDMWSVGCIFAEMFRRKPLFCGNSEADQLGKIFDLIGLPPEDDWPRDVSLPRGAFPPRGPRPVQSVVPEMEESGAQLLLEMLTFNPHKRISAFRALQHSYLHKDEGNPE
Cyclin-dependent kinase 4/cyclin D1, sequence (P24385 whole entry, further chain, the tested form may be a part): as the sequence (P24385 whole entry) above

[18] = target: T6, Receptor-type tyrosine-protein kinase FLT3; assay: Binding affinity to human FLT3 D835Y mutant (Q580 to Y969 residues) expressed in bacterial expression system by Kinomescan method
[19] = target: Receptor-type tyrosine-protein kinase FLT3 (Homo sapiens, UniProt P36888, F691L/ITD); assay: Binding affinity to human FLT3 ITD/F691L double mutant expressed in bacterial expression system by Kinomescan method
[20] = target: T3, CDK2 (cyclin-dependent kinase 2); assay: Inhibition of CDK2 (unknown origin) at 0.123 uM by Hotspot assay relative to control; settings: CDK2 enzyme (unknown origin)
[21] = target: Vascular endothelial growth factor receptor 3 (Homo sapiens, UniProt P35916); assay: Inhibition of human FLT4 by Hotspot assay
Vascular endothelial growth factor receptor 3, sequence (P35916 whole entry): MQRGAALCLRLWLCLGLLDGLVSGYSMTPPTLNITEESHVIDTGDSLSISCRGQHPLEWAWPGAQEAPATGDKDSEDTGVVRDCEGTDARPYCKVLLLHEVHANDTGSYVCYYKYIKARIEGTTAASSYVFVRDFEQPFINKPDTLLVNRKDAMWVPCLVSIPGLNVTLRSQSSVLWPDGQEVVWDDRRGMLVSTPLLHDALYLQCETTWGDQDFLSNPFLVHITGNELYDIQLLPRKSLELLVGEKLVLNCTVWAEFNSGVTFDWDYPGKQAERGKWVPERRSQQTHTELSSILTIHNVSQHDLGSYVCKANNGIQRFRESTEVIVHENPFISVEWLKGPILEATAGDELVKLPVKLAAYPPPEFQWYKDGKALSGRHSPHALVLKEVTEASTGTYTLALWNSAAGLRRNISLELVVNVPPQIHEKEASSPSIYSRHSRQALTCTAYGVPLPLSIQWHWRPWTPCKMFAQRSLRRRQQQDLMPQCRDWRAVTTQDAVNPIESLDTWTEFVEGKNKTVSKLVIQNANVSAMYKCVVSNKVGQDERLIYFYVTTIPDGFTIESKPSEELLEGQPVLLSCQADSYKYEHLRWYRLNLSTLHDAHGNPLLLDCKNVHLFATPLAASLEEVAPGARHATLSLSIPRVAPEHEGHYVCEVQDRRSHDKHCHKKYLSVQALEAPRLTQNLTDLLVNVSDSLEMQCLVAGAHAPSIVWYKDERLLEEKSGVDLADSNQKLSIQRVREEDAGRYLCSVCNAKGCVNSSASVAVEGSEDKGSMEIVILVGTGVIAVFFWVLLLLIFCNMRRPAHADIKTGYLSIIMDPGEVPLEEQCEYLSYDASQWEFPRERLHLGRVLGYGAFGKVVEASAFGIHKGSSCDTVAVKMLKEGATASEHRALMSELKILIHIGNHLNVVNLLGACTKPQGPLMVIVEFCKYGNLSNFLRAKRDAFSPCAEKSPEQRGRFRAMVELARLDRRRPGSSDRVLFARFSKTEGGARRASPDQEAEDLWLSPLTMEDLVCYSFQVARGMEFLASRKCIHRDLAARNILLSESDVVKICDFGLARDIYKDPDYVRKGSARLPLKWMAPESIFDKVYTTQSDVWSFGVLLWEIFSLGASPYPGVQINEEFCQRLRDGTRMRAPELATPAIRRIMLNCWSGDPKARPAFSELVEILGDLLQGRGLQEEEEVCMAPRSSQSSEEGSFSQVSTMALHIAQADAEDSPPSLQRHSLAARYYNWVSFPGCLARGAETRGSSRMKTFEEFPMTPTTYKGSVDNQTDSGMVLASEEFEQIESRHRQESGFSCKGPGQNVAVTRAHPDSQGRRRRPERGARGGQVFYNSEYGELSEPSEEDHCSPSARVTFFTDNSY

HL-60 = assay: Growth inhibition of human HL60 cells expressing low levels of FLT3 after 72 hrs by Cell-Titer Glo assay; format: functional, cell-based; settings: HL-60, 72 h
[22] = Intrinsic clearance in human liver microsomes preincubated for 5 mins followed by NADPH addition by LC-MS/MS analysis; format: ADME, microsome; settings: read-out: CLH
[23] = target: T4, Receptor-type tyrosine-protein kinase FLT3; assay: Inhibition of human FLT3 Y591-V592 mutant by Hotspot assay
[24] = target: Receptor-type tyrosine-protein kinase FLT3 (Homo sapiens, UniProt P36888, D835V/ITD); assay: Binding affinity to human FLT3 ITD/D835V double mutant expressed in bacterial expression system by Kinomescan method
K562 = assay: Growth inhibition of FLT3 null human K562 cells after 72 hrs by Cell-Titer Glo assay; format: functional, cell-based; settings: K562, 72 h
MOLM-13 = assay: Growth inhibition of human MOLM13 cells harboring FLT3-ITD after 72 hrs by Cell-Titer Glo assay; format: functional, cell-based; settings: MOLM-13, 72 h
[25] = target: T4, Receptor-type tyrosine-protein kinase FLT3; assay: Inhibition of human FLT3 assessed as residual activity at 0.123 uM by Hotspot assay relative to control
[26] = target: Cyclin-dependent kinase 2 (Homo sapiens, UniProt P24941); assay: Inhibition of CDK2 (unknown origin) by Hotspot assay

T1 sequence (Q00534 whole entry): as the sequence (Q00534 whole entry) above

Cc1nc(Nc2c[nH]nc2C(=O)Nc2ccc(CN3CCN(C)CC3)cc2)c2ccsc2n1
Activity [1]: 72.1% | Ratio IC50 (Homo sapiens [2]): 100 | IC50 (MV4-11): 0.052 µM | IC50 [3]: 0.00065 µM | activity at 0.123 µM [4]: 51.1% | Ratio IC50 (Homo sapiens [5]): 100

CN1CCN(Cc2ccc(NC(=O)c3n[nH]cc3Nc3ncnc4sccc34)cc2)CC1
IC50 [6]: 0.00333 µM | IC50 [7]: 0.00735 µM | IC50 [8]: 0.00267 µM | IC50 [9]: 0.00185 µM | IC50 [10]: < 0.01 µM | IC50 [11]: 0.00123 µM | half-life [12]: 51 min | IC50 [13]: 0.0175 µM | IC50 (CDK6/cyclin D1): < 0.01 µM | IC50 [14]: 0.00054 µM | Drug uptake [15]: 29.7% | IC50 (MV4-11): 0.016 µM | inhibition [16]: > 80% | IC50 (CDK2/Cyclin A2): < 0.01 µM | IC50 [3]: 0.0006 µM | IC50 [17]: < 0.01 µM | Kd [18]: 0.00701 µM | Kd [19]: 0.0013 µM | inhibition at 0.123 µM [20]: > 80% | IC50 [21]: 0.0045 µM | IC50 (HL-60): 0.334 µM | microsomal CLint [22]: 13.6 µL/min/mg | IC50 [23]: 0.0132 µM | Kd [24]: 0.00023 µM | IC50 (K562): 0.235 µM | IC50 (MOLM-13): 0.039 µM

Cc1nc(Nc2c[nH]nc2C(=O)Nc2ccc(CN3CCOCC3)cc2)c2ccsc2n1
Activity [1]: 79.7% | IC50 (MV4-11): 0.062 µM | IC50 [3]: 0.00363 µM | activity at 0.123 µM [4]: 52%

Cc1[nH]nc(C(=O)Nc2ccc(CN3CCN(C)CC3)cc2)c1Nc1ncnc2sccc12
Activity [1]: 96.2% | Activity [25]: 98.5% | activity at 0.123 µM [4]: 99.7%

CC(C)(C)c1nc(Nc2c[nH]nc2C(=O)Nc2ccc(N3CCNCC3)cc2)c2ccsc2n1
Activity [1]: 99.2% | IC50 (MV4-11): 0.098 µM | IC50 [3]: 0.0205 µM | activity at 0.123 µM [4]: 100%

CN1CCN(Cc2ccc(NC(=O)c3n[nH]cc3Nc3nc(C4CC4)nc4sccc34)cc2)CC1
Activity [1]: 103% | IC50 (MV4-11): 0.061 µM | IC50 [3]: 0.0157 µM | activity at 0.123 µM [4]: 89.8%

Cc1nc2c(c(Nc3c[nH]nc3C(=O)Nc3ccc(N4CCNCC4)cc3)n1)CCCC2
Activity [1]: 87.2% | IC50 (MV4-11): 0.018 µM | IC50 [3]: 0.00066 µM | activity at 0.123 µM [4]: 79.4%

O=C(Nc1ccc(CN2CCOCC2)cc1)c1n[nH]cc1Nc1nc(C2CC2)nc2sccc12
Activity [1]: 95.4% | IC50 (MV4-11): 0.078 µM | IC50 [3]: 0.0165 µM | activity at 0.123 µM [4]: 81.4%

Cc1nc(Nc2c[nH]nc2C(=O)Nc2ccc(N3CCNCC3)cc2)c2ccsc2n1
IC50 [6]: 0.0843 µM | IC50 [26]: 0.0815 µM | Ratio IC50 (Homo sapiens [2]): 131 | IC50 (MV4-11): 0.019 µM | inhibition [16]: > 80% | IC50 [3]: 0.00062 µM | inhibition at 0.123 µM [20]: > 80% | Ratio IC50 (Homo sapiens [5]): 131

CCc1nc(Nc2c[nH]nc2C(=O)Nc2ccc(N3CCNCC3)cc2)c2ccsc2n1
Activity [1]: 87% | IC50 (MV4-11): 0.065 µM | IC50 [3]: 0.00342 µM | activity at 0.123 µM [4]: 86.6%

O=C(Nc1ccc(N2CCNCC2)cc1)c1n[nH]cc1Nc1nc(Cl)nc2sccc12
Activity [1]: 63.6% | IC50 (MV4-11): 0.026 µM | IC50 [3]: 0.00047 µM | activity at 0.123 µM [4]: 56.8%

Cc1nc(Nc2c[nH]nc2C(=O)Nc2ccc(CN3CCOCC3)cc2)c2cc(C(C)C)sc2n1
IC50 [6]: 0.0332 µM | IC50 [26]: 0.0254 µM | IC50 (MV4-11): 0.048 µM | inhibition [16]: > 80% | IC50 [3]: 0.00066 µM | inhibition at 0.123 µM [20]: > 80%

Cc1nc(Nc2c[nH]nc2C(=O)Nc2ccc(CN3CCN(C)CC3)cc2)c2cc(C(C)C)sc2n1
IC50 [6]: 0.0192 µM | IC50 [26]: 0.0215 µM | IC50 (MV4-11): 0.065 µM | inhibition [16]: > 80% | IC50 [3]: 0.00073 µM | inhibition at 0.123 µM [20]: > 80%

Cc1[nH]nc(C(=O)Nc2ccc(CN3CCN(C)CC3)cc2)c1Nc1ncnc2[nH]ccc12
Activity [1]: 95.7% | Activity [25]: 98.5% | activity at 0.123 µM [4]: 99.9%

CN1CCN(Cc2ccc(NC(=O)c3nn(C)cc3Nc3ncnc4[nH]ccc34)cc2)CC1
Activity [1]: 99.3% | Activity [25]: 87.6% | activity at 0.123 µM [4]: 98.5%

O=C(Nc1ccc(N2CCNCC2)cc1)c1n[nH]cc1Nc1nc(C2CC2)nc2sccc12
Activity [1]: 88% | IC50 (MV4-11): 0.059 µM | IC50 [3]: 0.00253 µM | activity at 0.123 µM [4]: 97.4%

Cc1nc(Nc2c[nH]nc2C(=O)Nc2ccc(N3CCN(C)CC3)cc2)c2ccsc2n1
Activity [1]: 72.7% | IC50 (MV4-11): 0.027 µM | IC50 [3]: 0.00095 µM | activity at 0.123 µM [4]: 71.2%

CC(C)c1nc(Nc2c[nH]nc2C(=O)Nc2ccc(N3CCNCC3)cc2)c2ccsc2n1
Activity [1]: 93.5% | IC50 (MV4-11): 0.057 µM | IC50 [3]: 0.0113 µM | activity at 0.123 µM [4]: 101%

Cc1nc(Nc2c[nH]nc2C(=O)Nc2ccc(N3CCOCC3)cc2)c2ccsc2n1
Activity [1]: 83.1% | IC50 (MV4-11): 0.033 µM | IC50 [3]: 0.0038 µM | activity at 0.123 µM [4]: 78.8%
